From publication PMC11452728, “Pharmacokinetics of pulmonary indacaterol in rat lung using molecular imprinting solid-phase extraction coupled with RP-UPLC” (Scientific Reports, 2024)

How the values were obtained:
[1] = set-up: method as in PMID 24295085; conditions: human lung and pulmonary microsomes; cited from earlier work
[2] = set-up: method as in PMID 19819331; conditions: cited from earlier work
[3] = Pharmacokinetic study of indacaterol in rat lung tissues (MISPE, UPLC); format: in vivo, male Wistar rats; conditions: rat lungs
Procedure: AUC was calculated using the trapezoidal rule where, AUC 0−t was determined by summing the areas of consecutive trapezoids formed by plotting drug concentration versus time[36]. The elimination rate constant was estimated from the least-squares regression slope of the terminal lung concentrations by multiplying the negative slope by 2.303[36]. The AUC 0−inf was calculated using Eq. (9)[36]:9 [drawing 9]
where, Ct is the last lung concentration measured. The t1/2 was calculated using Eq. (10)[36]:10 [drawing 10]
The rats were divided into eight sampling time points (n = 3/sampling time point) representing different time intervals (0.0, 5.0, 15.0, 30.0, 60.0, 180.0, 360.0 and 1440.0 min) for the pharmacokinetic study. Except for the zero-time sampling point; where rats were not administered the drug and were used for bioanalytical validation; each rat in each sampling time point was administered one inhalation capsule containing 150 µg of indacaterol using a powder administration device for animals (Aptar Pharma, Le Prieure, Le Neubourg, France). The powder administration device was designed to deliver a uniform dose of dry powder inhalers into the lungs of rats.
At each time interval, three rats were subjected to euthanasia in the euthanasia chamber using carbon dioxide gas inhalation, after being unconscious, the rats were subjected to decapitation and their lungs were separated and cut into small slices to facilitate homogenization. Then, the lung tissues were homogenized for 10 min using a homogenizer placed in an ice jacket with 2.0 mL of PBS. The homogenized samples were then centrifuged, and the supernatant was separated and loaded into MISPE cartridge following the optimized MISPE steps. The drug was eluted in 1.0 mL of the eluent. Then, 10.0 µL of salbutamol stock solution was added to the eluent as an IS, and the eluent was then injected into UPLC. The same procedure was repeated at each time interval. Dead animal bodies were kept in biohazard bags in -20^ºC freezer and finally incinerated by specialized waste disposal companies.

[4] = Stability of lung samples spiked with indacaterol standard; format: physicochemical, rat; conditions: for Short-term stability, % deviation from fresh sample: room temperature 2 h, lung sample; for Long-term stability, % deviation from fresh sample: -80 °C 3 weeks; for Auto-sampler stability, % deviation from fresh sample: autosampler 30°C 6 h; for Freeze and thaw stability, % deviation from fresh sample: three cycles each of 24 h
Procedure: Regarding the preparation of lung tissue samples, three non-medicated male rats were sacrificed by decapitation and their whole lungs were harvested. The lungs were cut into small slices and mixed with 2.0 mL of PBS, homogenized in an ice jacket for 10.0 min. Subsequently, 1800.0 µL of the homogenate was collected and spiked with 200.0 µL of indacaterol solution with concentrations of 1.0, 3.0, 350.0, and 700.0 µg mL^− 1 separately, to achieve the concentration of the LLOQ and QCs per 1.0 mL of the lung homogenate. Samples were centrifuged at 3000 rpm for 10 min and 1.0 mL of the supernatant was passed through the MISPE cartridge according to the extraction protocol outlined in section "Preparation and optimization of MISPE". Finally, 10.0 µL of salbutamol stock standard solution was added to the eluent as IS, and the samples were injected into the UPLC for analysis.
Samples stabilities were assessed by injecting LLOQ and QCs six times and compared to freshly prepared samples using the following stability conditions:
Samples were left at room temperature for a time exceeding that required for sample preparation (2 h).
Samples were left in autosampler (30°C) for 6 h; expected time of samples storage in autosampler before injection. Then, samples were injected.
Samples were subjected to three cycles of freeze and thaw each of 24 h and the samples were kept under the same conditions as during the analysis.
Samples were stored at -80^ºC over a period exceeding that required for the whole experiment (3 weeks).
The results of all stability conditions were evaluated using Eq. (2). The deviation should not exceed ± 15.0%.2 [drawing 2]

[5] = Solubility of indacaterol in solvents (porogen and washing solvent choice); format: physicochemical
[6] = cited from earlier work
[7] = male, Wistar, lung, inhaled or intranasal, 150 ug, single inhaled capsule 150 µg, mean ± SD

CCc1cc2c(cc1CC)CC(NC[C@H](O)c1ccc(O)c3[nH]c(=O)ccc13)C2 [indacaterol, 5-[(1R)-2-(5,6-diethyl-indan-2-ylamino)-1-hydroxy-ethyl]−8-hydroxy-1H-quinolin-2-one]
metabolism by UGT1A1 and CYP3A4 in the lung [1]: did not detect any apparent metabolism
lipophilicity [2]: high
binding affinity for raft micro-domains compared to other β2 agonists ([2]; plasma membrane of airway smooth muscle): two-fold higher
Cmax ([3]; male, Wistar, lung, inhaled or intranasal, 150 ug, single inhaled Onbrez Breezhaler capsule 150 µg indacaterol, n = 3 per sampling time point, mean ± SD): 51 ± 2.81 µg/mL
AUC(0-inf) [3, 7]: 542 ± 5.25 µg·h/mL
Tmax [3, 7]: 4.98 ± 0.06 min
half-life ([3]; male, Wistar, lung, inhaled or intranasal, 150 ug, single inhaled capsule 150 µg, mean ± SD, read-out: t1/2 (0–24) (converted)): 48.51 ± 0.012 h
AUC(0-t) ([3]; male, Wistar, lung, inhaled or intranasal, 150 ug, zero to 24 h, single inhaled capsule 150 µg, mean ± SD): 175.9 ± 1.05 µg·h/mL
onset of lung deposition ([3]; single inhaled capsule 150 µg): 5 min
Elimination rate constant ([3]; single inhaled capsule 150 µg, mean ± SD): 0.014 ± 0.00012 h^− 1
Short-term stability, % deviation from fresh sample ([4]; LLOQ 0.10 µg mL^-1): -11.30±3.50%
Long-term stability, % deviation from fresh sample ([4]; LLOQ): -13.10±5.89%
Auto-sampler stability, % deviation from fresh sample ([4]; LLOQ): -12.05±4.20%
Freeze and thaw stability, % deviation from fresh sample ([4]; LLOQ): -13.26±4.85%
Short-term stability, % deviation from fresh sample ([4]; QCH 70.0 µg mL^-1): -2.89±1.94%
Long-term stability, % deviation from fresh sample ([4]; QCH): -3.28±1.32%
Auto-sampler stability, % deviation from fresh sample ([4]; QCH): -1.71±2.67%
Freeze and thaw stability, % deviation from fresh sample ([4]; QCH): -2.20±2.25%
Short-term stability, % deviation from fresh sample ([4]; QCL 0.30 µg mL^-1): -5.74±2.25%
Long-term stability, % deviation from fresh sample ([4]; QCL): -4.40±3.88%
Auto-sampler stability, % deviation from fresh sample ([4]; QCL): -5.98±2.58%
Freeze and thaw stability, % deviation from fresh sample ([4]; QCL): -4.80±3.26%
Short-term stability, % deviation from fresh sample ([4]; QCM 35.0 µg mL^-1): -4.14±2.61%
Long-term stability, % deviation from fresh sample ([4]; QCM): -3.90±2.22%
Auto-sampler stability, % deviation from fresh sample ([4]; QCM): -4.02±2.34%
Freeze and thaw stability, % deviation from fresh sample ([4]; QCM): -4.30±2.81%
solubility in acetonitrile and chloroform ([5]; tested as porogen): insolubility
solubility in methanol ([5]; washing solvent discussion): high
time to enter the bloodstream after inhalation ([6]; after being inhaled): ≤ 5 min
time to highest blood concentration ([6]; after entering the bloodstream, at very low doses): approximately 15 min
absolute bioavailability ([6]; inhaled): 45%
fraction of systemically available indacaterol due to pulmonary absorption (Flung) ([6]; inhaled): 74%
time to steady state ([6]; once-daily inhalation): 12 days
